Measurements as given in patent US20030040015A1, “Methods and reagents for identifying compounds and mutations that modulate dopamine beta-hydroxylase activity” (priority 2001, published 2003).
Blank lines part the entries; values can stand above or below the molecule they belong to.

Experiments:
NE deficient patients [1] = test: Physiological and pharmacological autonomic function tests in NE deficient patients; assay type: in vivo, human; details: for block of heart rate increase during strain phase (phase II) of the Valsalva maneuver: human, in vivo
From the text: We collected DNA samples from two patients with NE deficiency, and sequenced all exons and exon/intron junctions of their DBH, Phox2a, and Phox2b genes. Resulting novel variants were then examined in the first degree relatives of the NE deficient patients, healthy European-American controls, and in patients with autonomic disorders other than NE deficiency. […] These patients have been previously reported (Robertson D, et al. N Engl J Med; 314:1494, 1986; Biaggioni I, et al. Neurology, 40:370, 1990). The patients were evaluated on the Vanderbilt General Clinical Research Center while in balance on a 150 mEq sodium and 80 mEq potassium diet one week after discontinuation of medications. Both direct and indirect hemodynamic monitoring was carried out and a variety of physiological and pharmacological tests were employed. Catecholamines and their metabolites were analyzed by radioenzymatic and liquid chromatographic methods as described previously (Robertson D, et al. N Engl J Med, 314:1494, 1986; O'Connor D T, et al. Clin Sci, 86:149, 1994).

CHF patients = details: recent clinical studies; cited from earlier work
DBH-/- mouse embryos = details: DBH-/- embryos that usually die in utero; Thomas et al.; cited from earlier work
NE deficient patients [2] = details: Biaggioni et al. Lancet 1987; cited from earlier work

SMILES: COC(=O)[C@@H]1[C@H]2C[C@H]3c4[nH]c5ccccc5c4CCN3C[C@@H]2CC[C@@H]1O [yohimbine]
effect on blood pressure (NE deficient patients [1]; 10 mg po): no effect | effect on plasma catecholamines (NE deficient patients [1]; 10 mg po): no effect

hypersensitivity to the tachycardic effect of the β-adrenoreceptor agonist (NE deficient patients [1]; two NE deficient patients): three-fold hypersensitivity
SMILES: CC(C)NCC(O)c1ccc(O)c(O)c1 (centres unmarked) [isoproterenol]

SMILES: COc1ccccc1OCCNCC(O)COc1cccc2[nH]c3ccccc3c12 (centres unmarked) [carvedilol]
mortality and risk of death and hospitalization (CHF patients): reduced mortality and the risk of death and hospitalization

SMILES: N[C@H](C(=O)O)[C@H](O)c1ccc(O)c(O)c1 [DOPS, dihydroxyphenylserine]
rescue of homozygous mouse embryos (DBH-/- mouse embryos): rescued homozygous mouse embryos | treatment of autonomic and biochemical deficits of NE deficient patients (NE deficient patients [2]): successfully treated

SMILES: NCCc1ccc(O)cc1 [tyramine]
response to indirectly acting sympathomimetic amine (NE deficient patients [1]; 8 mg IV): absent response

SMILES: CN1[C@@H]2CC[C@H]1C[C@@H](OC(=O)C(CO)c1ccccc1)C2 (some centres unmarked) [atropine]
block of heart rate increase during strain phase (phase II) of the Valsalva maneuver (NE deficient patients [1]): blocked

SMILES: CC(C)NCC(O)COc1cccc2ccccc12 (centres unmarked) [propranolol]
block of heart rate increase during strain phase (phase II) of the Valsalva maneuver (NE deficient patients [1]): not

SMILES: Clc1cccc(Cl)c1N=C1NCCN1 [clonidine]
effect on arterial pressure (NE deficient patients [1]; 0.3 mg po, decrease expected): increase in arterial pressure

hypersensitivity to intravenous α1-adrenoreceptor agonist (NE deficient patients [1]; intravenous, two NE deficient patients): four-fold hypersensitivity
SMILES: CNC[C@H](O)c1cccc(O)c1 [phenylephrine]
